Data on eight compounds can be found in ChEMBL document CHEMBL1921708, “Klymollins A-H, bioactive eunicellin-based diterpenoids from the formosan soft coral Klyxum molle” (J Nat Prod, 2011).

Data set [1] concerns HeLa. Nature of the data set: Cytotoxicity against human HeLa cells. Format: cell-based.
The subject of data set [2] is MCF7. Nature of the data set: Cytotoxicity against human MCF7 cells. Format: cell-based.
The subject of data set [3] is HEp-2. Nature of the data set: Cytotoxicity against human Hep2 cells. It counts as cell-based.
For data set [4], the system named is RAW264.7. Nature of the data set: Antiinflammatory activity in LPS-stimulated mouse RAW264.7 cells assessed as reduction in iNOS protein expression at 10 uM by immunoblot analysis. Format: functional. On the set-up: scale not given: the % may be the effect or the level left.
For data set [5], the system named is Daoy. Nature of the data set: Cytotoxicity against human DaOY cells. It counts as cell-based.
Data set [6] has as its system RAW264.7. Nature of the data set: Antiinflammatory activity in LPS-stimulated mouse RAW264.7 cells assessed as reduction in COX2 protein expression at 10 uM by immunoblot analysis. On the set-up: scale not given: the % may be the effect or the level left. It counts as functional.

Take `C=C1C[C@H]2O[C@H]([C@@H]3[C@@H](C(C)C)[C@H](OC(C)=O)[C@H](OC(C)=O)[C@@]4(CO4)[C@@H]32)[C@](C)(OC(C)=O)CC[C@@H]1O` (relative stereo): the Activity entry is “Non-toxic” in data set [1]; “Non-toxic” in data set [2]; “Non-toxic” in data set [3]; 42.1% in data set [4]; “Non-toxic” in data set [5].
Take `C=C1C[C@H]2O[C@H]([C@H]3[C@@H]2[C@]2(CO2)[C@@H](OC(C)=O)C[C@@H]3C(C)C)[C@](C)(OC(C)=O)CC[C@@H]1O` (relative stereo): the Activity entry in data set [1] is reported as “Non-toxic”; in data set [2], “Non-toxic”; in data set [3] it was “Non-toxic”; in data set [4], 25.1%; in data set [5], “Non-toxic”.
With `CC(=O)O[C@H]1[C@H](C(C)C)[C@@H]2[C@@H]([C@H]3C[C@](C)(O)[C@@H](OC(C)=O)CC[C@@](C)(OC(C)=O)[C@@H]2O3)[C@]2(CO2)[C@H]1OC(C)=O` (relative stereo), the Activity result in data set [1] is recorded as “Non-toxic”; in data set [2], “Non-toxic”; in data set [3] it was “Non-toxic”; in data set [4] it was 25.7%; in data set [5], “Non-toxic”.
`CCCCCCCCCCCCCC(=O)O[C@H]1CC[C@@](C)(OC(C)=O)[C@@H]2O[C@H](C[C@]1(C)O)[C@@H]1[C@H]2[C@@H](C(C)C)[C@H](OC(C)=O)[C@H](OC(C)=O)[C@@]12CO2` (relative stereo): the Activity entry in data set [1] is on record as “Non-toxic”; in data set [2] it was “Non-toxic”; in data set [3], “Non-toxic”; in data set [6], 8.5%; in data set [4], 6%; in data set [5] it was “Non-toxic”.
Take `CCCCCCCCCCCCCCCC(=O)O[C@H]1CC[C@@](C)(OC(C)=O)[C@@H]2O[C@H](C[C@]1(C)O)[C@@H]1[C@H]2[C@@H](C(C)C)[C@H](OC(C)=O)[C@H](OC(C)=O)[C@@]12CO2` (relative stereo): the Activity entry is given as “Non-toxic” in data set [1]; “Non-toxic” in data set [2]; “Non-toxic” in data set [3]; 4.4% in data set [6]; 5.2% in data set [4]; “Non-toxic” in data set [5].
Take `CC(=O)O[C@H]1[C@H](C(C)C)[C@@H]2[C@@H]([C@H]3C[C@@H](C)C(=O)CC[C@@](C)(OC(C)=O)[C@@H]2O3)[C@](O)(CCl)[C@H]1OC(C)=O` [KLYMOLLIN A]: the Activity entry in data set [1], in data set [2], in data set [3] and in data set [5] was “Non-toxic” in each case.
As for `CC(=O)O[C@H]1[C@H](C(C)C)[C@@H]2[C@@H]([C@H]3C[C@H](C)C(=O)CC[C@@](C)(OC(C)=O)[C@@H]2O3)[C@](O)(CCl)[C@H]1OC(C)=O` [KLYMOLLIN B], the Activity entry in data set [1], in data set [2], in data set [3] and in data set [5] was “Non-toxic” each time.
Regarding `CC(=O)O[C@H]1[C@H](C(C)C)[C@@H]2[C@@H]([C@H]3C[C@](C)(O)[C@@H](OC=O)CC[C@@](C)(OC(C)=O)[C@@H]2O3)[C@]2(CO2)[C@H]1OC(C)=O` [KLYMOLLIN H], the Activity result is on record as “Non-toxic” in data set [1]; “Non-toxic” in data set [2]; “Non-toxic” in data set [3]; 32.6% in data set [4]; “Non-toxic” in data set [5].
